Test results reported in patent publication US12466863B2, “Nuclear reprogramming factor and induced pluripotent stem cells” (Kyoto University, priority 2005, dated 2025).

What was measured:
[1] = tested on: MEFs with Nanog-EGFP-IRES-Puro; assay: GFP-positive colonies from Nanog-EGFP-IRES-Puro MEFs after 4-factor transduction and puromycin selection; format: cell-based, mouse; conditions: PD98059 25 μM continuously from the next day of retroviral transfection; 4 factors; 8% without PD98059
Source text: Studies were made as to whether iPS cells could be established with a reporter other than Fbx15-βgeo. Escherichia coli artificial chromosome (BAC) containing the Nanog gene in the center was isolated, and then the GFP gene and the puromycin resistance gene were knocked in by recombination in E. coli (FIG. 12A). Subsequently, the above modified BAC was introduced into ES cells to confirm that the cells became GFP-positive in an undifferentiated state specific manner (data not shown). Then, these ES cells were transplanted in mouse blastocysts to create transgenic mice via chimeric mice. In these mice, GFP-positive cells were specifically observed in inner cell masses of the blastocysts or gonads of embryos at 13.5 days after fertilization (FIG. 12B). The gonads were removed from the embryos at 13.5 days after fertilization (hybrid of DBA, 129, and C57BL/6 mice), and MEFs were isolated. The isolated MEFs were confirmed to be GFP-negative (FIG. 13) by flow cytometry. These MEFs were retrovirally transduced with the 4 factors and subjected to puromycin selection, and as a result, a plural, number of resistant colonies were obtained. Only about 10 to 20% of the colonies were GFP-positive. When the GFP-positive colonies were passaged, they gave morphology (FIG. 14) and proliferation (FIG. 15) similar to those of ES cells. […]

[2] = tested on: MEFs derived from the Fbx15^βgeo/βgeo mouse; assay: Effect of cytokine (bFGF- or SCF-producing STO feeder cells) on iPS cell establishment; format: cell-based; conditions: no colony on normal STO cells
Source text: An effect of cytokine on iPS cell establishment was investigated. Expression vector (pMX retroviral vector) for basic fibroblast growth factor (bFGF) or stem cell factor (SCF) was transduced into feeder cells (STO cells) to establish cells permanently expressing the cytokines. […] As a result, the number of formed colonies increased 20 times or higher on the STO cells producing bFGF (FIG. 11) or SCF (data not shown), as compared with the culture on normal STO cells.

Molecule	percentage of GFP-positive colonies [1] [%]	iPS cell colony formation with the 3 factors other than c-Myc [2]
COc1cccc(-c2cc(=O)c3ccccc3o2)c1N [PD98059]	45	–
SCF: cytokine produced by STO feeder cells transduced with pMX expression vector	–	colony formation was observed
bFGF: cytokine produced by STO feeder cells transduced with pMX expression vector	–	colony formation was observed
